Values of other authors in patent publication US20240366601A1, “METHODS FOR TREATING TRAUMATIC BRAIN INJURY” (The Regents of the University of California, priority 2021, published 2024).

How the values were obtained:
[1] = FDA-approved doses for cancer treatments; list continues over the following table lines
CDK4 = CDK4 (Homo sapiens, UniProt P11802); conditions: for CDK4; read-out: in vitro IC50 (nM) in cell-free assays
Sequence of CDK4 (P11802 whole entry): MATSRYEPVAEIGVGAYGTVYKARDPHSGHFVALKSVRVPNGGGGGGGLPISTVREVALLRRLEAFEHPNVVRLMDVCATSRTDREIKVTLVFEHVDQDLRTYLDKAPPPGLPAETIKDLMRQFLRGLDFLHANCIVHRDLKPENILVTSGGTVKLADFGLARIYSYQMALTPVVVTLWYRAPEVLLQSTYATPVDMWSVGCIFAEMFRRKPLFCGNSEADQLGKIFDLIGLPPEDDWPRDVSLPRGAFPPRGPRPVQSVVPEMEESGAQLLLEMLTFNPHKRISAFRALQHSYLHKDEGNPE
Sequence of CDK4 (P24385 whole entry partner): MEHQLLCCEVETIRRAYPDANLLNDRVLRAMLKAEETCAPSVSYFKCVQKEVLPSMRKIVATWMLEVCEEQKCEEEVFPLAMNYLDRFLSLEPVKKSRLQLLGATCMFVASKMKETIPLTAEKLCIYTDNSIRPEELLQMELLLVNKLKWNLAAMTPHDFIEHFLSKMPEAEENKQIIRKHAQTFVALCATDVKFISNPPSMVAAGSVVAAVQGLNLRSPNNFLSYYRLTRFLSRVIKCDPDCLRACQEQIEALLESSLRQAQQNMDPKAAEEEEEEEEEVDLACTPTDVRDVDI

IC50 (CDK4) [nM]	Compound	Common Side effects at FDA-approved doses (Medline Plus) [1]
	CN(C)C(=O)c1cc2cnc(Nc3ccc(N4CCNCC4)cn3)nc2n1C1CCCC1 [ribociclib]	diarrhea; constipation; stomach pain; headache; hair loss; back pain; itching;
	CCN1CCN(Cc2ccc(Nc3ncc(F)c(-c4cc(F)c5nc(C)n(C(C)C)c5c4)n3)nc2)CC1 [abemaciclib]	diarrhea, nausea, abdominal pain, infections, tiredness, anemia, leukopenia,
3.9	CN1CCN(c2ccc(Nc3ncc4cc(C#N)c(=O)n(C5CCCC5)c4n3)cc2)CC1 [ON123300]	
